Measured values from ChEMBL document CHEMBL1201862, “PubChem BioAssay data set” (2004).
Activity calls are given as the source filed them.

How the values were obtained:
Jurkat = experiment: antigen receptor-induced NF-kB inhibitors, dose response, Jurkat, luciferase reporter, luminescence, B- and T-cell (AID 489004); format: functional, cell-based; conditions: Homo sapiens;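 note: NF-kB luciferase reporter Jurkat cells stimulated with PMA plus ionomycin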
HT-1080 = experiment: cytotoxicity in HT1080 fibrosarcoma cells, cell-based, fluorescence readout (AID 620); format: functional; conditions: Homo sapiens
[1] = cytotoxicity in HEK-293T NF-kB-Luc cells, dose response, cytotoxicity control for B/T-cell NF-kB inhibitor project, cell-based, uHTS hits (AID 489019); format: functional;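 note: IC50 reflects cytotoxicity as loss of cell viability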
[2] = biological target: Voltage-dependent T-type calcium channel subunit alpha-1H (Homo sapiens, UniProt O95180); format: functional;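 note: channel activity triggered by adding a high calcium stimulation buffer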
[3] = Luminescence Cell-Based Dose Response HTS to Identify Inhibitors of 5'UTR Stem-Loop Driven Prion Protein mRNA Translation in H4 Neuroglioblastoma Cells. [Related pubchem assays: 1827 (Project Summary), 1813 (Primary HTS)]; format: functional
[4] = HepG2 cell cytotoxicity, dose response, cytotoxicity control for Shn3 inhibitor project, CellTiter-Glo, cherry-picked (AID 624134); format: functional, cell-based
BJ [5] = experiment: cytotoxicity toward Ras-transformed BJeLR fibroblasts, dose response, cell-based, alamar blue fluorescence, cherrypicked samples (AID 2631); format: functional; conditions: Homo sapiens;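 note: confirmatory dose-response assay in RAS-dependent BJ fibroblasts engineered with TERT, LT and ST, with cytotoxicity read by fluorescence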
Vero [6] = experiment: host cell cytotoxicity of antiviral hits, dose response, cytotoxicity control for West Nile virus antiviral project, secondary assay (AID 1650); format: functional; conditions: Chlorocebus sabaeus
Fatty acid synthase [7] = biological target: T1, Fatty acid synthase (Homo sapiens, UniProt P49327); experiment: FAS thioesterase domain inhibitors, dose response, biochemical, endpoint fluorescence intensity, uHTS hits (AID 624327); format: functional;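 note: fluorescence from hydrolysis of an O-methyl fluorescein acyl ester substrate by the enzyme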
T1 sequence (P49327 whole entry, the tested form may be a part): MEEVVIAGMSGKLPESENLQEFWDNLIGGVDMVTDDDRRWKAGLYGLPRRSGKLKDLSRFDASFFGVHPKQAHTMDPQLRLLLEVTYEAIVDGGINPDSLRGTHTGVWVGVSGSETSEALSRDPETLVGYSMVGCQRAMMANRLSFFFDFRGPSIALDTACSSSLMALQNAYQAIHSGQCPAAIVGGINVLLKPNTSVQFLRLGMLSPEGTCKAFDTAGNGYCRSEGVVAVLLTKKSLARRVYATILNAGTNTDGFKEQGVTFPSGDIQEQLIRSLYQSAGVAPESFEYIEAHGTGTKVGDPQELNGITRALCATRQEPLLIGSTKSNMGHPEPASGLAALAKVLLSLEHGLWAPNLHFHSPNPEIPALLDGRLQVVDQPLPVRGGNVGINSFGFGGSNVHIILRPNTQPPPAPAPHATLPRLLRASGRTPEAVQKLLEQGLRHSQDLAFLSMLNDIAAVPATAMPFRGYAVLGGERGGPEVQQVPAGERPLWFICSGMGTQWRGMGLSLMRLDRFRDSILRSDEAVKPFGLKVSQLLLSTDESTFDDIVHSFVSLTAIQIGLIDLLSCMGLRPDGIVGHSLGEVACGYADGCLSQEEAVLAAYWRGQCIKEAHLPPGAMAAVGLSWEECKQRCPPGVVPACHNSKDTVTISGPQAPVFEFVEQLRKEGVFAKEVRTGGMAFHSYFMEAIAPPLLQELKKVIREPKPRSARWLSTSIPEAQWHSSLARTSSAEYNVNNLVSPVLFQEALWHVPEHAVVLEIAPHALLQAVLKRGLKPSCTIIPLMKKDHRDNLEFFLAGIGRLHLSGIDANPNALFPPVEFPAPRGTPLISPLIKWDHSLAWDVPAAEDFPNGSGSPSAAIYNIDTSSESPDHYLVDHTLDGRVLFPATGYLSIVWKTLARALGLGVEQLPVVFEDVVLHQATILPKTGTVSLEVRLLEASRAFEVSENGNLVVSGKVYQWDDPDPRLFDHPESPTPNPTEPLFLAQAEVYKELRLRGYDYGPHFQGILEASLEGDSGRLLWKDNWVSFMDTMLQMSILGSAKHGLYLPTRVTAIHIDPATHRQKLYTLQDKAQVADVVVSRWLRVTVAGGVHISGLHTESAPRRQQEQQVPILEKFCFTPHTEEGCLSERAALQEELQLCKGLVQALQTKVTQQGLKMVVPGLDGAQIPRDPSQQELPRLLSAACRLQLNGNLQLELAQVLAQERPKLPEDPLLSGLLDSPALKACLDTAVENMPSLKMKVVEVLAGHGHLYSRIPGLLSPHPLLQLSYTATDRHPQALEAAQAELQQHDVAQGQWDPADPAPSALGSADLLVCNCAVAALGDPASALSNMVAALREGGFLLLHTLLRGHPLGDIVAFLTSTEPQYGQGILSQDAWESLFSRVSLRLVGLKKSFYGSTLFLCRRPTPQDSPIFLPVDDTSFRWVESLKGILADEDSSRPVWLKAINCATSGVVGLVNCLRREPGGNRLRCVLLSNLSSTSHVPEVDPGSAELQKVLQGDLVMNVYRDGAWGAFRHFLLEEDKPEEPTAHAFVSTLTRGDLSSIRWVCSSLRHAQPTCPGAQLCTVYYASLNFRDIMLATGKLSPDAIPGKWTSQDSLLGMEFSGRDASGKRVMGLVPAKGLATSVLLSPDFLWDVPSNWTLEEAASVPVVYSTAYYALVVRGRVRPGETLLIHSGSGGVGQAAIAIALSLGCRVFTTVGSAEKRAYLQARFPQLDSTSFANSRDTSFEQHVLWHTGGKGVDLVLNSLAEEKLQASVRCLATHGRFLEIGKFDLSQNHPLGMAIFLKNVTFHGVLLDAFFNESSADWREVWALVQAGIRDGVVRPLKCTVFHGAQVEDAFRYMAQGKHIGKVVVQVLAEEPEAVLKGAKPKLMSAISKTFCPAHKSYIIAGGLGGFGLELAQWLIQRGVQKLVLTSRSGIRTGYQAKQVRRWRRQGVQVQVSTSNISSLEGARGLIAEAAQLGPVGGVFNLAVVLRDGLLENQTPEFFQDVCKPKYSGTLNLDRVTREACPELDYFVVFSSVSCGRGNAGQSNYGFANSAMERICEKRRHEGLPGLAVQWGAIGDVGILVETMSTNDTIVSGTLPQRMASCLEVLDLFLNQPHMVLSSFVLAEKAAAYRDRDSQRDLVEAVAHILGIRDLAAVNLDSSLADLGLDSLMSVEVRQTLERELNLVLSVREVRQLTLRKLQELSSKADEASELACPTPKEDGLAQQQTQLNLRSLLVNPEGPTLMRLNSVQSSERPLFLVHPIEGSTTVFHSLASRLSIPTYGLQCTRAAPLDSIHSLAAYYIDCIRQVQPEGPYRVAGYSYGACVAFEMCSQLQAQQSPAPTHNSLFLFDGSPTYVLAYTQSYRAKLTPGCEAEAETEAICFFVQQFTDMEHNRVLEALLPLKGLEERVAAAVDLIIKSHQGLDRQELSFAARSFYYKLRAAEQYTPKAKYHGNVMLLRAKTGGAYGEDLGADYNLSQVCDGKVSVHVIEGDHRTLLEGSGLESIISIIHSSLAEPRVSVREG

[8] = Shn3 3'UTR reporter inhibitors, dose response, cell-based, Clone20 osteoblasts, firefly luciferase, cherry-picked (AID 624132); format: functional;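 note: firefly luciferase luminescence from reporter carrying the Shn3 3'UTR in osteoblasts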
BJ [9] = experiment: cytotoxicity toward BJ-TERT fibroblasts, dose response, cell-based, RAS-independent, luminescence (AID 1933); format: functional; conditions: Homo sapiens
[10] = inhibitors of SNCA 5'UTR-driven reporter translation, confirmation, H4 neuroglioma cells, luminescence (AID 1988); format: functional, cell-based
BJ [11] = experiment: cytotoxicity toward BJ-TERT-LT-ST fibroblasts, dose response, cell-based, RAS-independent, luminescence (AID 1935); format: functional; conditions: Homo sapiens;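 note: BJ fibroblasts immortalized with TERT plus LT and ST oncogenes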
[12] = cytotoxicity toward DRD oncogenic fibroblasts, dose response, cell-based, non-viral oncogenic, luminescence (AID 1934); format: functional; conditions: Homo sapiens
Fatty acid synthase [13] = biological target: T1, Fatty acid synthase; experiment: FAS thioesterase domain inhibitors, dose response, biochemical, kinetic fluorescence intensity (AID 624326); format: functional;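 note: rate of fluorescence rise from hydrolysis of a fluorogenic O-methyl fluorescein ester substrate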
BJ [14] = experiment: cells; format: functional, cell-based; conditions: Homo sapiens
[15] = inhibitors of firefly luciferase expression or activity, dose response, H4 neuroglioma cells, luminescence (AID 1990); format: functional, cell-based
[16] = control 3'UTR Renilla luciferase suppression, dose response, counter-screen for Shn3 inhibitor project, cell-based, Clone20-Shn3RL, cherry-picked (AID 624133); format: functional
[17] = biological target: Glyceraldehyde-3-phosphate dehydrogenase (Homo sapiens, UniProt P04406)
Sequence of Glyceraldehyde-3-phosphate dehydrogenase (P04406 whole entry): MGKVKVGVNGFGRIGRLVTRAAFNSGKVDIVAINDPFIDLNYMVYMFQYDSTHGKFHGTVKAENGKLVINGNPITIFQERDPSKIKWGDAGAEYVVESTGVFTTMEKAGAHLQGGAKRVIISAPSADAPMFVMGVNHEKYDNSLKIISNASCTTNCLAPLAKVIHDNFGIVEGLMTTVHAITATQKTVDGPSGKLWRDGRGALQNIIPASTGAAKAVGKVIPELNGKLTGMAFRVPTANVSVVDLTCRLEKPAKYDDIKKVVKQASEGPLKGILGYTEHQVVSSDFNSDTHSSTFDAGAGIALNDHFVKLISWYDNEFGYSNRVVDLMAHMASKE

Bcl-2-related protein A1 [18] = biological target: T2, Bcl-2-related protein A1 (Mus musculus, UniProt Q07440); experiment: Bfl-1 binding inhibitors, SAR follow-up, biochemical, fluorescence polarization (AID 1070)
T2 sequence (Q07440 whole entry): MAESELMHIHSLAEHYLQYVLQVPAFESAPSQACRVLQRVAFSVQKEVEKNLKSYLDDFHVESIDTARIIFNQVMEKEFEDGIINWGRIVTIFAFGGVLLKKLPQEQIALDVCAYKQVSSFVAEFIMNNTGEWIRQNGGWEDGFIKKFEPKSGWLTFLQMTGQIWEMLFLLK

Bcl-2-related protein A1 [19] = biological target: T2, Bcl-2-related protein A1; experiment: Bfl-1 inhibitors blocking BH3 peptide binding, confirmation, biochemical, TR-FRET, mouse Bfl-1 (AID 621);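 note: TR-FRET binding of GST-Bfl-1 to FITC-labelled Bid peptide via terbium antibody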
Vero [20] = experiment: cells; format: functional; conditions: Chlorocebus sabaeus
Vero [21] = experiment: cells; format: functional, cell-based; conditions: Chlorocebus sabaeus
Cytochrome P450 2C19 = Cytochrome P450 2C19 (Homo sapiens, UniProt P33261); experiment: Cytochrome panel assay with activity outcomes. Panel member name: p450-cyp2c19 Compounds with AC50 equal or less than 10 uM are considered active; format: functional; conditions: read-out: AC50
Sequence of Cytochrome P450 2C19 (P33261 whole entry): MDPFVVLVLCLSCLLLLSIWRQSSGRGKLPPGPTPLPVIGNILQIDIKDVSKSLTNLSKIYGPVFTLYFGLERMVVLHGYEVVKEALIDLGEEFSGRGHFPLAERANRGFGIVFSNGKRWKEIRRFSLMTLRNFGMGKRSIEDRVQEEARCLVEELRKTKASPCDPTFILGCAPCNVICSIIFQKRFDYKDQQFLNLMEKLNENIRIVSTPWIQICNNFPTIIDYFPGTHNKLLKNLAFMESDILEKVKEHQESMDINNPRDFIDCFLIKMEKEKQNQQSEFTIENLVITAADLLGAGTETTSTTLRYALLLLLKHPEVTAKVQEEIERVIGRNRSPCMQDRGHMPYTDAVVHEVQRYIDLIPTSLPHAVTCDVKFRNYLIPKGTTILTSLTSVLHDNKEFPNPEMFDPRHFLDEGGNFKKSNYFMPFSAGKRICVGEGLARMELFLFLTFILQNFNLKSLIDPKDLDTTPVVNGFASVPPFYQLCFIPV

Cytochrome P450 1A2 = biological target: T3, Cytochrome P450 1A2 (Homo sapiens, UniProt P05177);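 note: PubChem cytochrome P450 panel assay, CYP1A2 panel member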
T3 sequence (P05177 whole entry): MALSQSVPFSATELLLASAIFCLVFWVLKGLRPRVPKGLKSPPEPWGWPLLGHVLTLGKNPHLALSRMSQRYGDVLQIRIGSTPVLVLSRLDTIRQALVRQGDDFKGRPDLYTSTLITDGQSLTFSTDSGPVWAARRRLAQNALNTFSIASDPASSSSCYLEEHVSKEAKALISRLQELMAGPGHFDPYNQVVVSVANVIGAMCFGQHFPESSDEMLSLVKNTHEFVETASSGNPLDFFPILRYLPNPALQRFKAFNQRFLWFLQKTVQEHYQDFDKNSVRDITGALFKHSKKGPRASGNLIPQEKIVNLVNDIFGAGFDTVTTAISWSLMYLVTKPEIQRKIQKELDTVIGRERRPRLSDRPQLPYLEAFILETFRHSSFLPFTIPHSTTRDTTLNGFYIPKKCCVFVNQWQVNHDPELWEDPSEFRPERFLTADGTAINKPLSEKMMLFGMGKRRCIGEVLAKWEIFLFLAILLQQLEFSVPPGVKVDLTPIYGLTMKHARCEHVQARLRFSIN

[22] = biological target: Mitogen-activated protein kinase 10 (Homo sapiens, UniProt P53779); experiment: Dose response biochemical screening assay for inhibitors of c-Jun N-Terminal Kinase 3 (JNK3). [Related pubchem assays: 746 ]
Sequence of Mitogen-activated protein kinase 10 (P53779 whole entry): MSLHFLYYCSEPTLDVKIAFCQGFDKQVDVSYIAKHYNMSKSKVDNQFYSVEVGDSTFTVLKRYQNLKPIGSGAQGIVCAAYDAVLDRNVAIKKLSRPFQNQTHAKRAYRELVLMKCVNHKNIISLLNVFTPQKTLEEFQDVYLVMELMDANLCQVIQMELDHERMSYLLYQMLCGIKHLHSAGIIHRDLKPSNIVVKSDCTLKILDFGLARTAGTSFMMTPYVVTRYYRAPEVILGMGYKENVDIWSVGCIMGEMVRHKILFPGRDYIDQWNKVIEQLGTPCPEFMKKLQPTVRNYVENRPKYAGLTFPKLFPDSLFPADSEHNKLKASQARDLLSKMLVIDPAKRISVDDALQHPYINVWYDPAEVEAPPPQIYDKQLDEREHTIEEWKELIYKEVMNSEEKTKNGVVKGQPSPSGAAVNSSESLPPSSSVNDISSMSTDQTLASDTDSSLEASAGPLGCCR

[23] = Luminescence Cell-Based Dose Response to Identify Activators of Luciferase Translation or Activity in H4-C Neuroglioblastoma Cells. [Related pubchem assays: 1829 (Project Summary), 1814 (Primary HTS)]; format: functional
[24] = biological target: 26S proteasome non-ATPase regulatory subunit 14 (Homo sapiens, UniProt O00487); experiment: inhibition of proteasome subunit RPN11 – biochemical, fluorescence polarization, uHTS hits, confirmation (AID 602368); format: functional
Sequence of 26S proteasome non-ATPase regulatory subunit 14 (O00487 whole entry): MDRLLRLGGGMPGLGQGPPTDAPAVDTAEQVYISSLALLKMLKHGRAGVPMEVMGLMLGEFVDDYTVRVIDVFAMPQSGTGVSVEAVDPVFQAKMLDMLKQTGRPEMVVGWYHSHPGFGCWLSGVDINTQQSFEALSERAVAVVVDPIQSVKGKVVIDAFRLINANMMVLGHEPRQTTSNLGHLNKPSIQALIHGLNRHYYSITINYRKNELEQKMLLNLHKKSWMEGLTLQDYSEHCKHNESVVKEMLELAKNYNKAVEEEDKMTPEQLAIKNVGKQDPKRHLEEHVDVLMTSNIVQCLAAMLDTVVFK

[25] = Luminescence Cell-Based Dose Response HTS to Identify Activators of Luciferase Translation or Activity in H4 […] Cells. [Related pubchem assays: 1829 (Project Summary), 1814 (Primary HTS)]; format: functional
Prothrombin = Prothrombin (Bos taurus, UniProt P00735); experiment: thrombin inhibition, dose response, biochemical, fluorescence polarization, uHTS hits (AID 602369); format: functional
[26] = Luminescence Cell-Based Dose Response to Identify Activators of 5'UTR Stem-Loop Driven Prion Protein mRNA Translation in H4-C Neuroglioblastoma Cells. [Related pubchem assays: 1829 (Project Summary), 1814 (Primary HTS)]; format: functional
[27] = Luminescence Cell-Based Dose Confirmation to Identify Activators of 5'UTR Stem-Loop Driven Alpha-Synuclein mRNA Translation in H4 Neuroglioblastoma Cells. [Related pubchem assays: 1829 (Project Summary), 1814 (Primary HTS)]; format: functional
H4 = experiment: Luminescence Cell-Based Dose Response HTS to Identify Activators of 5'UTR Stem-Loop Driven Prion Protein mRNA Translation in H4 Neuroglioblastoma Cells. [Related pubchem assays: 1829 (Project Summary), 1814 (Primary HTS)]; format: functional; conditions: Homo sapiens
[28] = biological target: 72 kDa type IV collagenase (Homo sapiens, UniProt P08253); experiment: Dose Response validation of uHTS RPN11 inhibitor hits using a MMP-2 Fluorescence assay.; format: functional
Sequence of 72 kDa type IV collagenase (P08253 whole entry): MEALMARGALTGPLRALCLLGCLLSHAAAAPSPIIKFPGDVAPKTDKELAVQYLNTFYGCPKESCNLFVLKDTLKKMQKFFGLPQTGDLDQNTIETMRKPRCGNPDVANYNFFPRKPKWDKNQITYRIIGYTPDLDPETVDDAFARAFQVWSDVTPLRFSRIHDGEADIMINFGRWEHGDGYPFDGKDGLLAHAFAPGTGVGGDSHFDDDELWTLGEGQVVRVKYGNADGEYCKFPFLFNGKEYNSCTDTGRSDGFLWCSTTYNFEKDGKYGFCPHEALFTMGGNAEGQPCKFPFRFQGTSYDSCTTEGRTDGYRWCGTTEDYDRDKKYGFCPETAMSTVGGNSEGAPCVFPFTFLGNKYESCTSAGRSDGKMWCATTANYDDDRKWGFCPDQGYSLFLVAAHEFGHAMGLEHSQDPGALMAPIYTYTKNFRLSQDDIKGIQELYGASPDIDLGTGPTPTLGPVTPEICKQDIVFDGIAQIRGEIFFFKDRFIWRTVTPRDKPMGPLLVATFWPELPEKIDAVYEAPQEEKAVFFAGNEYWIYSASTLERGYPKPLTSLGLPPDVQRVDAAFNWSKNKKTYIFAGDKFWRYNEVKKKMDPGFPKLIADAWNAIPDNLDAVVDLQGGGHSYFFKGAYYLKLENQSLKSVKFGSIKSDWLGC

[29] = Luminescence Cell-Based Dose Confirmation HTS to Identify Activators of 5'UTR Stem-Loop Driven Alpha-Synuclein mRNA Translation in H4 Neuroglioblastoma Cells. [Related pubchem assays: 1829 (Project Summary), 1814 (Primary HTS)]; format: functional
[30] = biological target: T4, Ubiquitin-conjugating enzyme E2 N (Homo sapiens, UniProt P61088); format: functional;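 note: Dose-response confirmation in a TR-FRET assay detecting UBC13-driven polyubiquitin chain formation, inhibition measured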
T4 sequence (P61088 whole entry): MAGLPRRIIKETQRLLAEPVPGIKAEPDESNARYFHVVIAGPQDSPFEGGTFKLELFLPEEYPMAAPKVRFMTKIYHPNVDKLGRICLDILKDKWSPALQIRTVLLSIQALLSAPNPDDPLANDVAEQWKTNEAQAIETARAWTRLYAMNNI

[31] = P. falciparum Dd2 growth inhibitors, dose response, SYBR Green, dry powder samples, set 9 (AID 1159568); format: functional, cell-based
[32] = CellTiter-Glo luminescent dose response of DLD-1 viability loss (AID 1117352); format: functional
[33] = HCT116 cell viability decrease, GSK3B pretreatment – CellTiter-Glo, IC50, dose response (AID 1117339); format: functional; conditions: HCT-116
[34] = cytotoxicity toward HT-29 cells – cell-based, CellTiter-Glo luminescence, IC50, dose response (AID 1117330); format: functional
[35] = cytotoxicity toward Colo320 cells – cell-based, CellTiter-Glo luminescence, IC50, dose response (AID 1117334); format: functional; conditions: COLO 320
[36] = Concentration-dependent survival of SW480 colon cancer line, luminescence detection with CellTiter-Glo, half-maximal inhibitory concentration (AID 1117338); format: functional
[37] = SNU-C1 cell viability reduction, dose response, CellTiter-Glo luminescence (AID 1117323); format: functional, cell-based
[38] = cytotoxicity toward HCT116 cells – cell-based, CellTiter-Glo luminescence, IC50, dose response (AID 1117332); format: functional; conditions: HCT-116
[39] = RKO cell viability reduction, dose response, CellTiter-Glo luminescence (AID 1117322); format: functional

N#Cc1c(NC(=O)CSc2nc[nH]n2)sc2c1CCCC2
IC50 (Jurkat): 0.64 µM (active) | EC50 (HT-1080): > 50 µM (not active) | IC50 [1]: > 80 µM (inactive)

CCn1cc(C(=O)NCc2ccco2)c(=O)c2cc(S(=O)(=O)N3CC(C)CC(C)C3)ccc21 (stereo unspecified)
EC50 [2]: 2.49 µM (active) | EC50 [3]: 0.503 µM (active) | AC50 [4]: 4.32 µM (active) | EC50 (BJ [5]): > 133 µM (inactive) | CC50 (Vero [6]): 32.1 µM (active) | IC50 (Fatty acid synthase [7]): 4.25 µM (active) | AC50 [8]: 0.778 µM (active) | EC50 (BJ [9]): > 150 µM (not active) | EC50 [10]: 10.9 µM (active) | EC50 (BJ [11]): > 150 µM (inconclusive) | EC50 [12]: 7.64 µM (active) | IC50 (Fatty acid synthase [13]): 4.14 µM (active) | EC50 (BJ [14]): 5.24 µM (active) | EC50 [15]: 9.5 µM (active) | AC50 [16]: 1.67 µM (active)

CC1CN(C2=C(Cl)C(=O)N(c3ccc(Cl)c(Cl)c3)C2=O)CCN1c1ccccc1 (stereo unspecified)
IC50 [17]: > 100 µM (not active) | IC50 (Bcl-2-related protein A1 [18]): > 100 µM (not active) | IC50 (Bcl-2-related protein A1 [19]): 19.3 µM (active)

COc1ccc(CCNC(=O)/C=C/c2ccc3ccccc3n2)cc1OC
CC50 (Vero [20]): 16.4 µM (active) | CC50 (Vero [6]): 12 µM (active) | IC50 (Vero [21]): > 25 µM (active)

Cc1cc(C(F)F)n2ncc(C(=O)NCc3ccccc3C(F)(F)F)c2n1
AC50 (Cytochrome P450 2C19): 6.31 µM (inconclusive) | AC50 (Cytochrome P450 1A2): 0.708 µM (inconclusive) | IC50 [22]: 26.2 µM (not active)

COC(=O)c1c(-c2cccnc2)csc1NC(=O)c1cc(C)on1
EC50 [23]: 0.387 µM (active) | IC50 [24]: 29.6 µM (active) | EC50 [25]: < 0.1 µM (inconclusive) | IC50 (Prothrombin): 48.3 µM (active) | EC50 [26]: 0.321 µM (active) | EC50 [27]: 0.435 µM (active) | EC50 (H4): 19.9 µM (inconclusive) | IC50 [28]: > 100 µM (inactive)

CCOC(=O)c1csc(-c2ccc3c(c2)CCO3)n1
EC50 [23]: > 12 µM (not active) | EC50 [29]: 0.127 µM (active) | EC50 [25]: < 0.1 µM (active) | EC50 [26]: > 12 µM (not active) | EC50 [27]: > 12 µM (not active) | EC50 (H4): 0.552 µM (active)

CCOC(=O)CSc1nc2ccccc2c(=O)n1CCCCCC(=O)NCc1ccco1
IC50 [22]: 43.3 µM (not active) | IC50 [30]: > 20 µM (inactive)

COc1ccccc1S(=O)(=O)N(C)C[C@@H]1OCc2ccccc2-c2ccccc2C(=O)N([C@H](C)CO)C[C@@H]1C
AC50 [31]: 4.71 µM (active)

C[C@@H]1CN([C@@H](C)CO)C(=O)c2cc(NC(=O)Nc3ccc4c(c3)OCO4)ccc2O[C@@H](C)CCCCO[C@H]1CN(C)S(=O)(=O)c1ccccc1
AC50 [31]: 4.34 µM (active)

O=C1c2ccccc2C(=O)C1C(=O)C(c1ccccc1)c1ccccc1 [DIPHENADIONE]
IC50 [32]: 1.33 µM (active) | IC50 [33]: 0.567 µM (active) | IC50 [34]: 4.48 µM (active) | IC50 [35]: 0.621 µM (active) | IC50 [36]: 0.536 µM (active) | IC50 [37]: 4.01 µM (active) | IC50 [38]: 0.531 µM (active) | IC50 [39]: 1.59 µM (active)

Cc1ccc(C(=O)c2cc(O)c(O)c([N+](=O)[O-])c2)cc1 [TOLCAPONE]
IC50 [32]: 6.14 µM (inactive) | IC50 [33]: 0.265 µM (active) | IC50 [34]: > 20 µM (inactive) | IC50 [35]: 2.5 µM (active) | IC50 [36]: 4.64 µM (active) | IC50 [37]: 4.54 µM (active) | IC50 [38]: 2.29 µM (active) | IC50 [39]: 1.88 µM (active)
